From patent US20240309043A1, “THERAPEUTICALLY ACTIVE STEROIDAL DERIVATIVES” (Organon R&D Finland Ltd., priority 2017, published 2024) come the findings set out here.

The test system of data set [1] is human hepatocytes. The data set is described as follows: Metabolic stability assay, human hepatocyte incubations. The format is in vitro ADME. As to conditions: 37° C., 0-60 min, half life. As for the experimental part: The in vitro metabolic stability of the compounds of the invention was determined for exemplified compounds using human hepatocyte incubations. Study compounds were incubated 0, 10, 20, 40 and 60 min at 37° C. Samples were collected at all time points and compounds were detected by LC-MS/MS analysis. The percent compound remaining is calculated by comparing the peak area of the parent compound at each time point to time zero. In vitro metabolic stability was determined as half life (T½), which was determined by regression analysis of the percent parent disappearance vs. time curve. The results are summarized in Table2.

Data set [2] has as its system HSD1 enzyme that is expressed in rabbit placenta tissue. The data set is described as follows: Inhibition of E1 to E2 conversion in rabbit placenta tissue homogenate. The format is biochemical. As to conditions: inhibitor 100 nM, 30 nM estrone, 30 min.
The target of data set [3] is T1, recombinant human 17β-HSD2 (Homo sapiens, UniProt P37059).
T1 construct: made in house; host or cells: Sd9 (Sf9) insect cells, baculovirus (Bac to Bac Expression System)
T1 sequence (P37059 1-387): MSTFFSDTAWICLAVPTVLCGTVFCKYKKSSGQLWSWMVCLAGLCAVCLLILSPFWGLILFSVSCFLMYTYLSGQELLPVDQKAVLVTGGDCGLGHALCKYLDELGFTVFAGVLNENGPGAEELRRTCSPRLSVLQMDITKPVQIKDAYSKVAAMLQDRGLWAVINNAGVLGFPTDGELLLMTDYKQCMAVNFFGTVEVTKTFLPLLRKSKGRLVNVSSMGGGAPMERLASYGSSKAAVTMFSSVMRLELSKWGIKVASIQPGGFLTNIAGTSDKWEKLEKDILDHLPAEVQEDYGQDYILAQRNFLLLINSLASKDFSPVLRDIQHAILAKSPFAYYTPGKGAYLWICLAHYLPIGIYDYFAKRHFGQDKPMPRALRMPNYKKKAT
The data set is described as follows: Inhibition of recombinant human 17β-HSD2. The format is biochemical. As to conditions: inhibitor 1 μM; 50 nM estradiol, 1 mM NADH, 30 min RT. The procedure, abridged: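 Sf9 baculovirus-expressed enzyme membrane extract (4 μg/ml) incubated 30 min at RT in 20 mM KH2PO4 pH 8.5 with 50 nM estradiol (³H-tracer) and 1 mM NADH, inhibitor at 1 μM or 0.1 μM, 1% DMSO. TCA-stopped; estradiol-to-estrone conversion by radio-HPLC, % inhibition = 100 − % conversion.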

Data set [4] addresses T2, recombinant human 17β-HSD1 (Homo sapiens, UniProt P14061).
T2 construct: made in house; host or cells: Sd9 (Sf9) insect cells, baculovirus (Bac to Bac Expression System)
T2 sequence (P14061 1-328): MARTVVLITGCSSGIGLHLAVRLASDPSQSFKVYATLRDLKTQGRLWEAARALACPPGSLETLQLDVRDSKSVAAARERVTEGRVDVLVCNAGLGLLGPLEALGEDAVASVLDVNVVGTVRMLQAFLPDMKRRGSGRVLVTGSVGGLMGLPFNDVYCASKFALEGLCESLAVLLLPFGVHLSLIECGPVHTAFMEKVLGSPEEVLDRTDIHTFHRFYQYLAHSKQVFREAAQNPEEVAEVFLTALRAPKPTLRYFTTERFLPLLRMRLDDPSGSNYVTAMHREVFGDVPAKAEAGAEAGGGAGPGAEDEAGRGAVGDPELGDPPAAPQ
Put plainly: Inhibition of recombinant human 17β-HSD1. The format is biochemical. As to conditions: inhibitor 100 nM; 30 nM estrone, 1 mM NADPH, 30 min RT. The procedure, abridged: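 Microsomes from Sf9 cells expressing human 17β-HSD1 (1 μg/ml) were incubated for 30 min at RT in 20 mM KH2PO4 pH 7.4 with 30 nM ³H-estrone, 1 mM NADPH and inhibitor at 1 μM or 0.1 μM (1% DMSO). Estrone-to-estradiol conversion was measured by radio-HPLC after TCA stop, and % inhibition was taken as 100 − % conversion.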

For orientation: inhibition means the change of the read-out against control, counted positive when it falls. For the compound `Cc1cc(NC(=O)CC[C@@H]2C/C(=N\O)[C@@]3(C)CCC4c5cccc(F)c5CCC4C23)no1` (stereo partly drawn) [Compound 2, 3-((13S,15R,E)-4-fluoro-17-(hydroxyimino)-13-methyl-7,8,9,11,12,13,14,15,16,17-decahydro-6H-cyclopenta[a]phenanthren-15-yl)-N-(5-methylioxazol-3-yl)propanamide], the “Human hepatocytes MetStab T1_2 min” value in data set [1] was 38 min. Besides, the “Rabbit placenta inhibition % @100 nM” value in data set [2] is 75%. Further, the inhibition at 1 µM in data set [3] came to 9%. Also, the inhibition at 0.1 µM in data set [4] is 83%.

As to `COc1ccc(NC(=O)CC[C@@H]2C/C(=N\O)[C@@]3(C)CCC4c5cccc(F)c5CCC4C23)nn1` (stereo partly drawn) [Compound 4, 3-((13S,15R,E)-4-fluoro-17-(hydroxyimino)-13-methyl-7,8,9,11,12,13,14,15,16,17-decahydro-6H-cyclopenta[a]phenanthren-15-yl)-N-(6-methoxypyridazin-3-yl)propanamide], the “Human hepatocytes MetStab T1_2 min” value in data set [1] was 42 min. Further, the inhibition at 1 µM in data set [3] turned out to be 13%. The inhibition at 0.1 µM in data set [4] was determined as 87%.

With `COc1ccc(NC(=O)CC[C@@H]2C/C(=N\O)[C@@]3(C)CCC4c5cccc(F)c5CCC4C23)nc1` (stereo partly drawn) [Compound 6, 3-((13S,15R,E)-4-fluoro-17-(hydroxyimino)-13-methyl-7,8,9,11,12,13,14,15,16,17-decahydro-6H-cyclopenta[a]phenanthren-15-yl)-N-(5-methoxypyridin-2-yl)propanamide], the “Human hepatocytes MetStab T1_2 min” value in data set [1] was 67 min. For the same compound, in data set [2], the “Rabbit placenta inhibition % @100 nM” value stood at 79%. The inhibition at 1 µM in data set [3] was 1%. Also, the inhibition at 0.1 µM in data set [4] stood at 92%.

Regarding `C[C@]12CCC3c4cccc(F)c4CCC3C1[C@H](CCC(=O)Nc1ccc(F)cn1)C/C2=N\O` (stereo partly drawn) [Compound 8, 3-((13S,15R,E)-4-fluoro-17-(hydroxyimino)-13-methyl-7,8,9,11,12,13,14,15,16,17-decahydro-6H-cyclopenta[a]phenanthren-15-yl)-N-(5-fluoropyridin-2-yl)propanamide], the “Human hepatocytes MetStab T1_2 min” value in data set [1] was 52 min. Also, the “Rabbit placenta inhibition % @100 nM” value in data set [2] is recorded as 37%. The inhibition at 1 µM in data set [3] was 2%. In data set [4], the inhibition at 0.1 µM turned out to be 90%.

Turning to `C[C@]12CCC3c4cccc(F)c4CCC3C1[C@H](CCC(=O)Nc1cccnn1)C/C2=N\O` (some centres unmarked) [Compound 20], in data set [1], the “Human hepatocytes MetStab T1_2 min” value is 17 min. The “Rabbit placenta inhibition % @100 nM” value in data set [2] is 50%. Besides, the inhibition at 1 µM in data set [3] amounted to 0%. Further, the inhibition at 0.1 µM in data set [4] turned out to be 80%.

Consider `CC(C)c1ccc(NC(=O)CC[C@@H]2C/C(=N\O)[C@@]3(C)CCC4c5ccc(F)cc5CCC4C23)nc1` (stereo partly drawn) [Compound 42, 3-((13S,15R,E)-3-fluoro-17-(hydroxyimino)-13-methyl-7,8,9,11,12,13,14,15,16,17-decahydro-6H-cyclopenta[a]phenanthren-15-yl)-N-(5-isopropylpyridin-2-yl)propanamide], for which the “Human hepatocytes MetStab T1_2 min” value in data set [1] is 78 min. Moreover, in data set [2], the “Rabbit placenta inhibition % @100 nM” value came to 41%. Besides, the inhibition at 1 µM in data set [3] was -5%. For the same compound, the inhibition at 0.1 µM in data set [4] stood at 96%.

With `COc1ccnc(NC(=O)CC[C@@H]2C/C(=N\O)[C@@]3(C)CCC4c5ccc(Cl)cc5CCC4C23)c1` (stereo partly drawn) [Compound 56, 3-((13S,15R,E)-3-chloro-17-(hydroxyimino)-13-methyl-7,8,9,11,12,13,14,15,16,17-decahydro-6H-cyclopenta[a]phenanthren-15-yl)-N-(4-methoxypyridin-2-yl)propanamide], the “Human hepatocytes MetStab T1_2 min” value in data set [1] came out at 334 min. The “Rabbit placenta inhibition % @100 nM” value in data set [2] is recorded as 0%. In addition, in data set [3], the inhibition at 1 µM worked out at 3%. For the same compound, the inhibition at 0.1 µM in data set [4] is 63%.

On to `COc1ccc(NC(=O)CC[C@@H]2C/C(=N\O)[C@@]3(C)CCC4c5ccccc5CCC4C23)nc1` (some centres unmarked) [Compound 84], for which the “Human hepatocytes MetStab T1_2 min” value in data set [1] is 35 min. Besides, the “Rabbit placenta inhibition % @100 nM” value in data set [2] is on record as 35%. In data set [3], the inhibition at 1 µM is -15%. Moreover, the inhibition at 0.1 µM in data set [4] is 73%.

In the case of `C[C@]12CCC3c4ccccc4CCC3C1[C@H](CCC(=O)Nc1ccc(N3CCOCC3)cn1)C/C2=N\O` (stereo partly drawn) [Compound 90, 3-((13S,15R,E)-17-(hydroxyimino)-13-methyl-7,8,9,11,12,13,14,15,16,17-decahydro-6H-cyclopenta[a]phenanthren-15-yl)-N-(5-morpholinopyridin-2-yl)propanamide], the “Human hepatocytes MetStab T1_2 min” value in data set [1] amounted to 83 min. The “Rabbit placenta inhibition % @100 nM” value in data set [2] was 47%. Also, the inhibition at 1 µM in data set [3] was -6%. For the same compound, the inhibition at 0.1 µM in data set [4] was found to be 82%.

For the compound `CC(C)c1ccc(NC(=O)CC[C@@H]2C/C(=N\O)[C@@]3(C)CCC4c5ccccc5CCC4C23)nc1` (stereo partly drawn) [Compound 96, 3-((13S,15R,E)-17-(hydroxyimino)-13-methyl-7,8,9,11,12,13,14,15,16,17-decahydro-6H-cyclopenta[a]phenanthren-15-yl)-N-(5-isopropylpyridin-2-yl)propanamide], in data set [1], the “Human hepatocytes MetStab T1_2 min” value turned out to be 46 min. The “Rabbit placenta inhibition % @100 nM” value in data set [2] turned out to be 51%. Also, the inhibition at 1 µM in data set [3] was -4%. Also, the inhibition at 0.1 µM in data set [4] was 84%.

As to `C[C@]12CCC3c4ccccc4CCC3C1[C@H](CCC(=O)Nc1ccc(F)cn1)C/C2=N\O` (stereo partly drawn) [Compound 98, N-(5-fluoropyridin-2-yl)-3-((13S,15R,E)-17-(hydroxyimino)-13-methyl-7,8,9,11,12,13,14,15,16,17-decahydro-6H-cyclopenta[a]phenanthren-15-yl)propanamide], the “Human hepatocytes MetStab T1_2 min” value in data set [1] stood at 28 min. Besides, in data set [2], the “Rabbit placenta inhibition % @100 nM” value is listed as 4%. In addition, the inhibition at 1 µM in data set [3] came out at 0%. Further, the inhibition at 0.1 µM in data set [4] worked out at 60%.

For `COc1ccnc(NC(=O)CC[C@@H]2C/C(=N\O)[C@@]3(C)CCC4c5ccccc5CCC4C23)c1` (stereo partly drawn) [Compound 106, 3-((13S,15R,E)-17-(hydroxyimino)-13-methyl-7,8,9,11,12,13,14,15,16,17-decahydro-6H-cyclopenta[a]phenanthren-15-yl)-N-(4-methoxypyridin-2-yl)propanamide], the “Human hepatocytes MetStab T1_2 min” value in data set [1] was 31 min. Further, the “Rabbit placenta inhibition % @100 nM” value in data set [2] is 5%. Besides, the inhibition at 1 µM in data set [3] is 2%. Further, the inhibition at 0.1 µM in data set [4] was found to be 76%.

Turning to `Cc1cnc(NC(=O)CC[C@@H]2C/C(=N\O)[C@@]3(C)CCC4c5ccccc5CCC4C23)o1` (stereo partly drawn) [Compound 108, 3-((13S,15R,E)-17-(hydroxyimino)-13-methyl-7,8,9,11,12,13,14,15,16,17-decahydro-6H-cyclopenta[a]phenanthren-15-yl)-N-(5-methyloxazol-2-yl)propanamide], in data set [1], the “Human hepatocytes MetStab T1_2 min” value amounted to 21 min. Besides, the “Rabbit placenta inhibition % @100 nM” value in data set [2] was determined as 20%. In addition, the inhibition at 1 µM in data set [3] amounted to 5%. For the same compound, the inhibition at 0.1 µM in data set [4] amounted to 54%.

With `Cc1cc(NC(=O)CC[C@@H]2C/C(=N\O)[C@@]3(C)CCC4c5ccccc5CCC4C23)no1` (some centres unmarked) [Compound 110], the “Human hepatocytes MetStab T1_2 min” value in data set [1] is reported as 26 min. Also, in data set [2], the “Rabbit placenta inhibition % @100 nM” value was found to be 35%. Besides, the inhibition at 1 µM in data set [3] is -4%. In data set [4], the inhibition at 0.1 µM was determined as 33%.

As for `CC(C)c1ccc(NC(=O)CC[C@@H]2C/C(=N\O)[C@@]3(C)CCC4c5cccc(F)c5CCC4C23)nc1` (stereo partly drawn) [Compound 112, 3-((13S,15R,E)-4-fluoro-17-(hydroxyimino)-13-methyl-7,8,9,11,12,13,14,15,16,17-decahydro-6H-cyclopenta[a]phenanthren-15-yl)-N-(5-isopropylpyridin-2-yl)propanamide], the “Human hepatocytes MetStab T1_2 min” value in data set [1] amounted to 29 min. In addition, the “Rabbit placenta inhibition % @100 nM” value in data set [2] is on record as 67%. Further, the inhibition at 1 µM in data set [3] stood at 7%. Also, in data set [4], the inhibition at 0.1 µM is 96%.
